Assay results taken from patent publication US11130902B2, “Gas hydrate inhibitors” (Lamberti SPA, priority 2016, dated 2021).

Assays:
[1] = Foaming power tests (Waring Blender); type: physicochemical; details: 30 seconds at 8000 rpm; for FS (foam stability, time to regenerate 50 mL of liquid), Test 4 / FV (foam volume), Test 4: 1% by weight solution in 4% sea salt water solution; for FS (foam stability, time to regenerate 50 mL of liquid), Test 3 / FV (foam volume), Test 3: 1% by weight solution in deionized water
Description: The foam volume (FV) and the foam stability (FS) were determined by stirring for 30 seconds at high speed (8000 rpm) with a Waring Blender 100 mL of a 1% by weight solution of the inhibitors in deionized water (Test 3) or in a 4% sea salt water solution (Test 4). The foamed composition is then transferred into a graded cylinder for the evaluation of the foam volume and the stability of the foam.
FV represent the volume in mL of foam at the end of the stirring. FS is the time in seconds required to the foamed solution to regenerate 50 mL of liquid. The longer the time, the higher the stability of the foam.

[2] = Corrosion tests, Linear Polarization Resistance (LPR); details: 10 ppm by volume inhibitor, synthetic brine, CO2, 200 ppm H2S, 80° C., compared to the blank; for % Protection, 1 hour: after 1 hour; for % Protection, 16 hours: after 16 hours
Description: The Linear Polarization Resistance (LPR) measurements were made with a Gamry Electrochemical Instrument system.
The LPR corrosion tests were conducted in 1 L Pyrex jacketed cells. 900 mL of synthetic brine (50/50 v/v 4.0% Seasalt water/Fresh Water) were loaded in the cell placed on a magnetic stirrer, deaerated overnight with CO2 and, finally, saturated with 200 ppm H2S gas just before testing. A clean C1018 Mild Steel rod was inserted in the corrosion cell assembly as sample probe. A graphite rod was used as the counter electrode. The temperature of the solution was brought to 80° C. for the duration of the tests and CO2 was continuously purged at a constant flow rate. The (Test 4) inhibitors were added at 10 ppm by volume of test solution.
The results are reported in Table 4 as % of protection after a fixed period of time compared to the blank, the test solution without any inhibitor, which is considered 100% corrosion.

[3] = Gas hydrate inhibition test (Rocking Cell RC5); parameters: key: FAIL: The ball is stuck and/or large agglomerations or solid crystals and/or visible deposits on the cell walls.; PASS: The ball is free; solid crystals might be present, but agglomerates (large or small) break up with agitation; details: 2% by weight inhibitor, 4° C., visual evaluation after 16 hours shut-in; for gas hydrate inhibition, Test 2: 20/80 v/v deionized water/diesel; for gas hydrate inhibition, Test 1: 50/50 v/v 4% wt seasalt water/diesel
Description: Gas Hydrate Inhibition Test
The performances of the gas hydrate inhibitors of the invention were evaluated with a Rocking Cell RC5 by PSL Systemtechnik.
Test Fluids • Hydrocarbon: Diesel • Aq. Phase: 4% wt seasalt water or deionized water • Gas: Mix of methane, ethane, propane and butane (various isomers)
The sapphire test cells, containing a stainless steel ball, were filled with the fluids (see Table 1) and 2% by weight of inhibitor and pressurized with the gas mixture.
Each cell was the subjected to a cycle of cooling and rocking consisting of three steps: 1) flowing condition, 2) shut-in and 3) re-start flowing condition. • 1) The pressurized cells were cooled down to 4° C. over a period of 5 hours while rocking. After reaching 4° C., the cells were rocked for 12 hours. • 2) The rocking was stopped and the test cells were kept in horizontal position (shut-in) for 16 hours. • 3) At the end of the shut-in period, rocking was re-started for 4 hours. Finally the cells were heated back up to 20° C.
At the beginning of the third step, the content of the cells was visually evaluated.
Each cycle was replicated three times and the results registered.
The results of the gas hydrate inhibition tests (Table 2) are reported according to the following scale: • FAIL: The ball is stuck and/or large agglomerations or solid crystals and/or visible deposits on the cell walls. • PASS: The ball is free; solid crystals might be present, but agglomerates (large or small) break up with agitation.

Row | Substance | FS (foam stability, time to regenerate 50 mL of liquid), Test 4 [1] [s] | FV (foam volume), Test 4 [1] [mL] | FS (foam stability, time to regenerate 50 mL of liquid), Test 3 [1] [s] | FV (foam volume), Test 3 [1] [mL] | % Protection, 1 hour [2] [%] | % Protection, 16 hours [2] [%] | gas hydrate inhibition, Test 2 [3] | gas hydrate inhibition, Test 1 [3]
1 | N,N-dibutyl-N-ethyl-cocooxyethyl ammonium chloride | 59 | 172 | 97 | 210 | 78.9 | 87.9 | – | –
2 | N,N-dibutyl-N-ethyl-cocooxyethyl ammonium ethyl sulfate | 46 | 160 | 70 | 185 | 81.4 | 90.2 | PASS | PASS
3 | N,N-dibutyl-N-ethyl-soyaoxyethyl ammonium ethyl sulfate | 118 | 230 | 180 | 320 | – | – | – | –
4 | benzylcocodimethyl ammonium chloride | 215 | 430 | 260 | 480 | 79.7 | 89.5 | FAIL | FAIL
